What all share (assay type): biochemical
Details in all cases: ADP-Glo SIK kinase assay

The target of assay [1] is T1, SIK1 (Homo sapiens, UniProt P57059).
T1 construct: purchased Carna Biosciences 02-131
The experiment in a line: ADP-Glo kinase assay, SIK1. Here is the method:
(§1) The ADP-Glo™ kinase assay is a luminescent technology assay which measures the ADP formed from a kinase reaction. […] In a second step the kinase reactions are terminated and all the remaining ATP is depleted. In a final step the ADP is converted into ATP and this newly synthesized ATP is measured by using a luciferase/luciferin reaction. The generated light is measured using an Envision plate reader, wherein the luminescent signal obtained positively correlates with the kinase activity.
(§2) 1% DMSO and 10 μM staurosporine final concentrations are used as negative and positive controls.
(§3) 2 μL enzyme-substrate mixture is added to the assay plates.
(§4) The reaction is started by adding 2 μL diluted ATP on the assay plates. Plates are centrifuged for a few seconds at 1000 rpm and gently shaken for 2 min followed by an incubation at RT for 120 min.
(§5) The reactions are stopped and the unconsumed ATP is depleted by adding 5 μL ADP-Glo Reagent (Promega, Cat #V912B) to the reaction. The plates are centrifuged for a few seconds at 1000 rpm and incubated at RT for 40 min (ATP depletion).
(§6) The ADP is converted to ATP and luciferase and luciferin is introduced to detect ATP by adding 10 μL Kinase Detection Reagent (Promega, Cat #V913B+V914B) to the reaction. The plates are centrifuged for a few seconds at 1000 rpm and incubated at RT for 30 min (ADP detection).
(§7) Luminescence is measured on an Envision plate reader (PerkinElmer Inc.).
Background: ADP-Glo first removes unused ATP, then detects ADP through luciferase.

Assay [2] addresses T2, SIK2 (Homo sapiens, UniProt Q9H0K1).
T2 construct: purchased ThermoFisher Scientific PV4792
The assay can be described thus: ADP-Glo kinase assay, SIK2. Here is the method: as §1, §2, §3, §4, §5, §6, §7

In assay [3] the target is T3, SIK3 (Homo sapiens, UniProt Q9Y2K2).
T3 construct: purchased SignalChem S12-11G-100
The experiment in a line: ADP-Glo kinase assay, SIK3. As for the experimental part: as §1, §2, §3, §4, §5, §6, §7

Some results are limits rather than exact numbers.

T3 sequence (Q9Y2K2 whole entry): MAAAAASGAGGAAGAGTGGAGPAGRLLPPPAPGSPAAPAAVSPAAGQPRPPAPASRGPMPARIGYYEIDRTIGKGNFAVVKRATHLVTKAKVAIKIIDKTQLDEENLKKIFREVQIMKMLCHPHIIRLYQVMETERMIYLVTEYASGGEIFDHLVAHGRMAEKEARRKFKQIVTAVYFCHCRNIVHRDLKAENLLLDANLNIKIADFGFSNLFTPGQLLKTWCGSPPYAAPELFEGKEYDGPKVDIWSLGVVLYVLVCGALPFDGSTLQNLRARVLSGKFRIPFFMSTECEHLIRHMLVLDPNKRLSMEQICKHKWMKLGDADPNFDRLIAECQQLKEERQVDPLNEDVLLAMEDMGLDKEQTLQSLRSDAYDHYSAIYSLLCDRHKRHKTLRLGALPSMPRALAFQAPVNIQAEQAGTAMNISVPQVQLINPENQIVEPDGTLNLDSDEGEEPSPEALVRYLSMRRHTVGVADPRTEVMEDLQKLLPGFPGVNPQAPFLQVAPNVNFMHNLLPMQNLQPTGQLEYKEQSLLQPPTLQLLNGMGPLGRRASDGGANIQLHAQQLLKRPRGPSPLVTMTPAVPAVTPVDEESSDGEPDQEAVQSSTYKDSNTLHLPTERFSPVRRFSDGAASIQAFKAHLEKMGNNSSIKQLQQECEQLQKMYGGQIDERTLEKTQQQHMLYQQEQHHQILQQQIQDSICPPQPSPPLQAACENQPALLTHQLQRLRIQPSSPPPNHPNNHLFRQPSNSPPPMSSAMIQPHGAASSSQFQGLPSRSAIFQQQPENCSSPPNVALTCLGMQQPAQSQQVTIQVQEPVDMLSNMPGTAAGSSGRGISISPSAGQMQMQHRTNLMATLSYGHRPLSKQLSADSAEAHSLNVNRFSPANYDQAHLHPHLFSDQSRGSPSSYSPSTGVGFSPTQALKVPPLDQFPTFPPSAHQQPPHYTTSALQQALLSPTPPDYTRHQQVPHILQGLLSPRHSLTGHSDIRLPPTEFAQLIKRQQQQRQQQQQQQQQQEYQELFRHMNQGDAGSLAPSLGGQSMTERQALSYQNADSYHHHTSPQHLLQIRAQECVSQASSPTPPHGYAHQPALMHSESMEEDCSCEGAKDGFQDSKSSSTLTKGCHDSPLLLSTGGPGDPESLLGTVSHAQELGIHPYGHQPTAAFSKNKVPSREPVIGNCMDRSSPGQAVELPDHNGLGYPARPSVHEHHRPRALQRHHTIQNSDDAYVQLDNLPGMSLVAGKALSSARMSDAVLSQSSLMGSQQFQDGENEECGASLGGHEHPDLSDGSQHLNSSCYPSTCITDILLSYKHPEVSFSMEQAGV
T2 sequence (Q9H0K1 whole entry): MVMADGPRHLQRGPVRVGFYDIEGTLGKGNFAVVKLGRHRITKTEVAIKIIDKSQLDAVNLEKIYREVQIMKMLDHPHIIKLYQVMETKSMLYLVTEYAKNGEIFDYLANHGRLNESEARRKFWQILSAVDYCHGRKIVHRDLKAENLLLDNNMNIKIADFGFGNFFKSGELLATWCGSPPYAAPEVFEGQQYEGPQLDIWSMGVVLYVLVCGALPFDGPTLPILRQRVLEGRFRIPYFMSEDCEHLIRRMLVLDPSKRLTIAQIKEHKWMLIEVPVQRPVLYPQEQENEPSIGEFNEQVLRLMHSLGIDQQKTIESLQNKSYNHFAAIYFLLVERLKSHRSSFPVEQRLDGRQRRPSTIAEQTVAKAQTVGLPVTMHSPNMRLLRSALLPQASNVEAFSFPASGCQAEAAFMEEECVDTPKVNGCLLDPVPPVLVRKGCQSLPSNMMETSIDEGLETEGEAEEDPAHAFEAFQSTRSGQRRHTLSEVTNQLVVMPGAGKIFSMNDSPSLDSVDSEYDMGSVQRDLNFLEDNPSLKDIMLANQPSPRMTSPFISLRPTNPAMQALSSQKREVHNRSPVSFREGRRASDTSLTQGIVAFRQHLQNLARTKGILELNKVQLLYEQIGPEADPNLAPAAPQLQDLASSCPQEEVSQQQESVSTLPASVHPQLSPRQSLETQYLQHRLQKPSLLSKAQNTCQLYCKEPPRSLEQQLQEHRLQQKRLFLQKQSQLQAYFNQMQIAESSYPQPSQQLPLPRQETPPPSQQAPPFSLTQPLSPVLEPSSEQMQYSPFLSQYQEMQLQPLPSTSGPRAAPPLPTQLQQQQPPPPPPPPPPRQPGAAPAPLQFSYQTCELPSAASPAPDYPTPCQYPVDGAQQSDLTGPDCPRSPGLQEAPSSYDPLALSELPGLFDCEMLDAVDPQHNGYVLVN
T1 sequence (P57059 whole entry): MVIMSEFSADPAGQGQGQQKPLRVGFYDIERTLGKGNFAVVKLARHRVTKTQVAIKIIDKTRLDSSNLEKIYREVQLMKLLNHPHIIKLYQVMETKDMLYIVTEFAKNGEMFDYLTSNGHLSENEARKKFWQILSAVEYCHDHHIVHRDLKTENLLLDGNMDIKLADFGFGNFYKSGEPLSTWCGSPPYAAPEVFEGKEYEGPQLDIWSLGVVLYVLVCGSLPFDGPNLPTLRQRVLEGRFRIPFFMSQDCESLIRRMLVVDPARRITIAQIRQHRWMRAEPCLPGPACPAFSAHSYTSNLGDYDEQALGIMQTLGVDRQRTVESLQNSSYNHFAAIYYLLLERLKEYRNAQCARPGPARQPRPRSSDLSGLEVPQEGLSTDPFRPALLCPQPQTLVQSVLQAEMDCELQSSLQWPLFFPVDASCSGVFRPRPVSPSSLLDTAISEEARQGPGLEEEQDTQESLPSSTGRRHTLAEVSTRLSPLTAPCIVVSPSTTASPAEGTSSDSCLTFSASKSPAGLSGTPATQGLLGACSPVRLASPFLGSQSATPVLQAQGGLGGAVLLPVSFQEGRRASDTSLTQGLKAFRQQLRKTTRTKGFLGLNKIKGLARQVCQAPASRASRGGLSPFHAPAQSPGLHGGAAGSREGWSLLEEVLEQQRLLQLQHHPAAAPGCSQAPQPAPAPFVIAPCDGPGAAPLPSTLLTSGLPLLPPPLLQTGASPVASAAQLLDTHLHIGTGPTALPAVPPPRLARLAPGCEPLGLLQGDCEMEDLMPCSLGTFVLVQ

With `COc1cc(-c2cnc3cc(OCc4nccn4C(C)C)ccn23)cc(OC(F)F)c1C(=O)NC1CC1` [compound 175, N-cyclopropyl-2-(difluoromethoxy)-4-[7-[(1-isopropylimidazol-2-yl)methoxy]imidazo[1,2-a]pyridin-3-yl]-6-methoxy-benzamide], the half-maximal inhibitory concentration (IC50) (as a rule, the point on the concentration scale where inhibition reaches its midpoint) in assay [1] is 100 to 500 nM; in assay [2], 0.01 to 10 nM; in assay [3] it was 0.01 to 10 nM.
For `COc1cc(-c2cnc3cc(OCc4cc(C)nn4C)ccn23)cc(OC(F)F)c1C(=O)NC1CC1` [compound 198, N-cyclopropyl-2-(difluoromethoxy)-4-[7-[(2,5-dimethylpyrazol-3-yl)methoxy]imidazo[1,2-a]pyridin-3-yl]-6-methoxy-benzamide], the IC50 was in the range of 10 to 100 nM in assay [1], 0.01 to 10 nM in assay [2] and 0.01 to 10 nM in assay [3].
For `COc1cc(-c2cnc3cc(OCCCN4CCOCC45COC5)ccn23)cc(OC(F)F)c1C(=O)NC1CC1` [compound 296, N-cyclopropyl-2-(difluoromethoxy)-4-[7-[3-(2,8-dioxa-5-azaspiro[3.5]nonan-5-yl)propoxy]imidazo[1,2-a]pyridin-3-yl]-6-methoxy-benzamide], the results for the IC50 in assay [1], in assay [2] and in assay [3] were 10 to 100 nM, 0.01 to 10 nM and 0.01 to 10 nM, respectively.
On to `COc1cc(-c2cnc3cc(OCCNCCO)ccn23)cc(OC(F)F)c1C(=O)NC1CC1` [compound 114], for which the IC50 in assay [1] is 10 to 100 nM; in assay [2], 0.01 to 10 nM; in assay [3], 0.01 to 10 nM.
Turning to `COc1cc(-c2cnc3cc(OCC4(C)CN(C)C4)ccn23)cc2c1C(=O)N(CC(F)(F)F)CC2` [Cpd 253, 6-[7-[(1,3-dimethylazetidin-3-yl)methoxy]imidazo[1,2-a]pyridin-3-yl]-8-methoxy-2-(2,2,2-trifluoroethyl)-3,4-dihydroisoquinolin-1-one], the results for the IC50 in assay [1], in assay [2] and in assay [3] were greater than 500 nM, 10 to 100 nM and 0.01 to 10 nM, respectively.
For `CCN1CCc2cc(-c3cnc4cc(OCCN(C)C)ccn34)cc(OC)c2C1=O` [compound 53, 6-[7-[2-(dimethylamino)ethoxy]imidazo[1,2-a]pyridin-3-yl]-2-ethyl-8-methoxy-3,4-dihydroisoquinolin-1-one], the half-maximal inhibitory concentration (IC50) in assay [1] is greater than 500 nM; in assay [2], 10 to 100 nM; in assay [3] it was 10 to 100 nM.
Take `COc1cc(-c2cnc3cc(OCCOCCN4CCOCC4)ccn23)cc(OC(F)F)c1C(=O)NC1CC1` [compound 306, N-cyclopropyl-2-(difluoromethoxy)-6-methoxy-4-[7-[2-(2-morpholinoethoxy)ethoxy]imidazo[1,2-a]pyridin-3-yl]benzamide]: the values for the IC50 in assay [1], in assay [2] and in assay [3] were 10 to 100 nM, 0.01 to 10 nM and 0.01 to 10 nM, respectively.
Consider `COc1cc(-c2cnc3cc(OCCN(C)c4ccccc4)ccn23)cc(OC(F)F)c1C(=O)NC1CC1` [Cpd 184, N-cyclopropyl-2-(difluoromethoxy)-6-methoxy-4-[7-[2-(N-methylanilino)ethoxy]imidazo[1,2-a]pyridin-3-yl]benzamide], for which the IC50 in assay [1], in assay [2] and in assay [3] was 0.01 to 10 nM in each case.
With `COc1cc(-c2cnc3cc(OCC4CC4(F)F)ccn23)cc(OC(F)F)c1C(=O)NC1CC1` (stereo not drawn) [compound 42, N-cyclopropyl-4-[7-[(2,2-difluorocyclopropyl)methoxy]imidazo[1,2-a]pyridin-3-yl]-2-(difluoromethoxy)-6-methoxy-benzamide], the IC50 in assay [1], in assay [2] and in assay [3] was 0.01 to 10 nM in each case.
`CCOC(=O)C1CCCN(CCOc2ccn3c(-c4cc(OC)c(C(=O)NC5CC5)c(OC(F)F)c4)cnc3c2)C1` (stereo not drawn) [compound 392, ethyl 1-[2-[3-[4-(cyclopropylcarbamoyl)-3-(difluoromethoxy)-5-methoxy-phenyl]imidazo[1,2-a]pyridin-7-yl]oxyethyl]piperidine-3-carboxylate]: the IC50 in assay [1] was in the range of 10 to 100 nM; in assay [2] it was 0.01 to 10 nM; in assay [3], 0.01 to 10 nM.
`COc1cc(-c2cnc3cc(OC4CN(C)C4)ccn23)cc(OC(F)F)c1C(=O)NC1CC1` [compound 29, N-cyclopropyl-2-(difluoromethoxy)-6-methoxy-4-[7-(1-methylazetidin-3-yl)oxyimidazo[1,2-a]pyridin-3-yl]benzamide]: the IC50 fell in the range of 100 to 500 nM in assay [1], 10 to 100 nM in assay [2] and 10 to 100 nM in assay [3].
With `COc1cc(-c2cnc3cc(OCc4cccnc4)ccn23)cc(OC(F)F)c1C(=O)NC1CC1` [compound 43, N-cyclopropyl-2-(difluoromethoxy)-6-methoxy-4-[7-(3-pyridylmethoxy)imidazo [1,2-a]pyridin-3-yl]benzamide], the IC50 in assay [1] is 10 to 100 nM; in assay [2], 0.01 to 10 nM; in assay [3], 0.01 to 10 nM.
As to `COc1cc(-c2cnc3cc(OCC(C)(C)N(C)C)ccn23)cc(OC(F)F)c1C(=O)NC1CC1` [compound 106, N-cyclopropyl-2-(difluoromethoxy)-4-[7-[2-(dimethylamino)-2-methyl-propoxy]imidazo[1,2-a]pyridin-3-yl]-6-methoxy-benzamide], the IC50 in assay [1] is greater than 500 nM; in assay [2], 10 to 100 nM; in assay [3], 10 to 100 nM.
Turning to `COc1cc(-c2cnc3cc(OCCc4cnn(C)c4)ccn23)cc(OC(F)F)c1C(=O)NC1CC1` [compound 204, N-cyclopropyl-2-(difluoromethoxy)-6-methoxy-4-[7-[2-(1-methylpyrazol-4-yl)ethoxy]imidazo[1,2-a]pyridin-3-yl]benzamide], the IC50 in assay [1], in assay [2] and in assay [3] was 0.01 to 10 nM in each case.
For the compound `COc1cc(-c2cnc3cc(OCC4CCCCN4CC(F)(F)F)ccn23)cc(OC(F)F)c1C(=O)NC1CC1` (stereo not drawn) [Cpd 182, N-cyclopropyl-2-(difluoromethoxy)-6-methoxy-4-[7-[[1-(2,2,2-trifluoroethyl)-2-piperidyl]methoxy]imidazo[1,2-a]pyridin-3-yl]benzamide], the IC50 in assay [1] fell in the range of 10 to 100 nM; in assay [2] it was 10 to 100 nM; in assay [3], 0.01 to 10 nM.
With `COc1cc(-c2cnc3cc(OCC4CN(CC(C)(C)O)C4)ccn23)cc(OC(F)F)c1C(=O)NC1CC1` [Cpd 342, N-cyclopropyl-2-(difluoromethoxy)-4-[7-[[1-(2-hydroxy-2-methyl-propyl)azetidin-3-yl]methoxy]imidazo[1,2-a]pyridin-3-yl]-6-methoxy-benzamide], the IC50 in assay [1] is 10 to 100 nM; in assay [2], 0.01 to 10 nM; in assay [3], 0.01 to 10 nM.
Take `COc1cc(-c2cnc3cc(OCC4(C)CNC4)ccn23)cc2c1C(=O)N(CC(F)(F)F)CC2` [Cpd 251, 8-methoxy-6-[7-[(3-methylazetidin-3-yl)methoxy]imidazo [1,2-a]pyridin-3-yl]-2-(2,2,2-trifluoroethyl)-3,4-dihydroisoquinolin-1-one]: the values for the IC50 in assay [1], in assay [2] and in assay [3] were 100 to 500 nM, 10 to 100 nM and 0.01 to 10 nM, respectively.
On to `COc1cc(-c2cnc3cc(OCCOCCN(C)C)ccn23)cc(OC(F)F)c1C(=O)NC1CC1` [compound 65, N-cyclopropyl-2-(difluoromethoxy)-4-[7-[2-[2-(dimethylamino)ethoxy]ethoxy]imidazo[1,2-a]pyridin-3-yl]-6-methoxy-benzamide], for which the IC50 in assay [1], in assay [2] and in assay [3] was 0.01 to 10 nM each time.
As to `COc1cc(-c2cnc3cc(OCCN4CCOCC4)ccn23)cc2ccn(CC(F)(F)F)c(=O)c12` [Cpd 221, 8-methoxy-6-[7-(2-morpholinoethoxy)imidazo [1,2-a]pyridin-3-yl]-2-(2,2,2-trifluoroethyl) isoquinolin-1-one], the IC50 is greater than 500 nM in assay [1], 10 to 100 nM in assay [2] and 10 to 100 nM in assay [3].
As to `COc1cc(-c2cnc3cc(OCCCOC(C)=O)ccn23)cc(OC(F)F)c1C(=O)NC1CC1` [Cpd 282, 3-[3-[4-(cyclopropylcarbamoyl)-3-(difluoromethoxy)-5-methoxy-phenyl]imidazo[1,2-a]pyridin-7-yl]oxypropyl acetate], the IC50 in assay [1] lay within 10 to 100 nM; in assay [2], 0.01 to 10 nM; in assay [3], 0.01 to 10 nM.
For `COc1cc(-c2cnc3cc(OCCCN4CCn5ccnc5C4)ccn23)cc(OC(F)F)c1C(=O)NC1CC1` [compound 312, N-cyclopropyl-2-(difluoromethoxy)-4-[7-[3-(6,8-dihydro-5H-imidazo[1,2-a]pyrazin-7-yl)propoxy]imidazo[1,2-a]pyridin-3-yl]-6-methoxy-benzamide], the IC50 in assay [1] was in the range of 10 to 100 nM; in assay [2], 0.01 to 10 nM; in assay [3], 0.01 to 10 nM.
Turning to `COc1cc(-c2cnc3cc(OCCN4CCOCC4)ccn23)cc2cc[nH]c(=O)c12` [compound 210, 8-methoxy-6-[7-(2-morpholinoethoxy)imidazo [1,2-a]pyridin-3-yl]-2H-isoquinolin-1-one], the IC50 lay within 10 to 100 nM in assay [1], 0.01 to 10 nM in assay [2] and 10 to 100 nM in assay [3].

(Values after US12264156B2, “Compounds and pharmaceutical compositions thereof for the treatment of diseases” (GALAPAGOS NV, priority 2018, dated 2025).)
